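Briefly, cells in 96-well plates were exposed to five compound concentrations for 48 h, and endpoints were estimated by linear interpolation. Definition used: TGI = concentration required for complete inhibition of growth.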
Experiments:
Assay in all cases: inhibition of tumour cell growth, NCI panel, 48 h
SK-MEL-2 melanoma = test system: SK-MEL-2 melanoma
SK-MEL-28 melanoma = test system: SK-MEL-28 melanoma
SNB-75 CNS = test system: SNB-75 CNS
SN12C renal = test system: SN12C renal
SK-OV-3 ovarian = test system: SK-OV-3 ovarian
SK-MEL-5 melanoma = test system: SK-MEL-5 melanoma
HCT-15 colon = test system: HCT-15 colon
CCRF-CEM leukemia = test system: CCRF-CEM leukemia
U251 CNS = test system: U251 CNS
T-47D breast = test system: T-47D breast
SF-295 CNS = test system: SF-295 CNS
MDA-MB-231 breast = test system: MDA-MB-231 breast
NCI/ADR-RES ovarian = test system: NCI/ADR-RES ovarian
NCI-H226 lung = test system: NCI-H226 lung
NCI-H460 lung = test system: NCI-H460 lung
HL-60(TB) leukemia = test system: HL-60(TB) leukemia
HS 578T breast = test system: HS 578T breast
IGROV1 ovarian = test system: IGROV1 ovarian

SMILES	TGI (SK-MEL-2 melanoma) [µM]	TGI (SK-MEL-28 melanoma) [µM]	TGI (SNB-75 CNS) [µM]	TGI (SN12C renal) [µM]	TGI (SK-OV-3 ovarian) [µM]	TGI (SK-MEL-5 melanoma) [µM]	TGI (HCT-15 colon) [µM]	TGI (CCRF-CEM leukemia) [µM]	TGI (U251 CNS) [µM]	TGI (T-47D breast) [µM]	TGI (SF-295 CNS) [µM]	TGI (MDA-MB-231 breast) [µM]	TGI (NCI/ADR-RES ovarian) [µM]	TGI (NCI-H226 lung) [µM]	TGI (NCI-H460 lung) [µM]	TGI (HL-60(TB) leukemia) [µM]	TGI (HS 578T breast) [µM]	TGI (IGROV1 ovarian) [µM]
NC(=O)N/N=C\CC(O)(C(F)(F)Cl)C(F)(F)Cl	> 10	> 10	> 10	> 10	> 10	> 10	> 10	> 10	> 10	> 10	> 10	> 10	> 10	> 10	> 10	> 10	> 10	> 10
O=c1[nH]c2nc3ccccc3c(=O)n2/c1=C/c1ccccc1	> 100	> 100	99.4	83.8	> 100	> 100	> 100	> 100	> 100	> 100	> 100	> 100	> 100	> 100		> 100	> 100	> 100
O=S(Cc1ccccc1)c1ccccc1Cn1cccc1 (centres undefined)	> 100	> 100	> 100	> 100	> 100	> 100	> 100	> 100	> 100	> 100	> 100	> 100	> 100		> 100	> 100	> 100	> 100
O=C(C[C@@H]1CCCN2CCCC[C@H]12)N1c2ccccc2Sc2ccc(Cl)cc21		26.3	33.4	32.1		23.9	30.4	35.1	24.4	39.5	36.7	28.4	29.4	46	28.3	36.8	38.5	25.6
CSc1nc(-c2ccccc2)[nH]c(=O)n1	> 100	> 100		> 100	> 100	> 100	> 100	> 100	> 100	> 100	> 100	> 100	> 100	> 100		> 100	> 100	> 100
COc1ccc2c(=O)c3ccoc3[nH]c2c1	> 100	> 100	> 100		> 100	> 100	> 100	> 100	> 100	> 100	> 100	> 100	> 100	> 100	> 100	> 100	> 100	> 100
CCOC(=O)C(=[N+]=[N-])C(=O)CSC#N	> 100	> 100		> 100	> 100	> 100	> 100	> 100	> 100	> 100	> 100	> 100	> 100	> 100		> 100	> 100	> 100
COc1c(Sc2c(SCSc3cnc4ccccc4c3Sc3cnc4ccccc4c3OC)cnc3ccccc23)cnc2ccccc12	> 100	> 100	> 100	> 100		> 100	> 100	> 100	> 100	> 100	> 100	> 100	> 100		> 100	26.3	> 100	> 100
COCN1C(=O)[C@@H]2C[C@@H](O)CN2C(=O)c2ccccc21	> 100	> 100	> 100	> 100	> 100	> 100	> 100	> 100	> 100	> 100	> 100	> 100	> 100		> 100	> 100	> 100	> 100
Cn1c(-c2ccccc2)cc(-c2ccc3c(c2)OCO3)c1-c1ccsc1	> 100	> 100	> 100	> 100	> 100	> 100	> 100	> 100	> 100	> 100	> 100	> 100	> 100	> 100	> 100	> 100	> 100	
O=C(O)CCC(NC(=O)c1ccc(Oc2nc3ccccc3nc2C(=O)O)cc1)C(=O)O (centres undefined)	> 100	> 100	> 100		> 100	> 100	> 100	> 100	> 100	> 100	> 100	> 100	> 100	> 100	> 100	> 100	> 100	> 100
COC(=O)C1(Cc2ccccc2)Cc2ccccc2C1O (centres undefined)		> 100	> 100	> 100	> 100	> 100	> 100	> 100	> 100	> 100	> 100	> 100	> 100	> 100	> 100	> 100	> 100	> 100
Cc1n[nH]c(=O)n1C1CC1		> 100	> 100	> 100	> 100	> 100	> 100	> 100	> 100	> 100	> 100	> 100	> 100	> 100	> 100	> 100	> 100	> 100
Cc1cc(C)n(-c2nc(-n3nc(C)cc3C)nc(-n3nc(C)cc3C)n2)n1	> 100	> 100		> 100	> 100	> 100	> 100	> 100		> 100	> 100	> 100	> 100	> 100	> 100	> 100	> 100	> 100

Source: PubChem BioAssay (NCI)
